Earlier results on 2 molecules are cited in US6576415B2, “Photothermographic materials with increa sed photosensitivity” (priority 2000, dated 2003).

Like-named read-outs stand apart in the source and are kept apart here.

Regarding `O=P(=O)[O-].[Ag+]` [silver metaphosphate], the Solubility in water (at 20° C.) is 3200 µg/mL. Consider `[Ag+].[Ag+].[O]=[W](=[O])([O-])[O-]` [silver tungstate], for which the Solubility in water (at 15° C.) is 500 µg/mL.
